From article PMC13192270, “RhlR quorum-sensing receptor ligand sensitivity regulates the differential expression of phenazine genes in Pseudomonas aeruginosa” (Journal of Bacteriology, 2026)
Where a chain is given by its changes, count along the chain named. Like-named read-outs stand apart in the source and are kept apart here.

Key:
WT RhlR = target: T1, WT RhlR (Pseudomonas aeruginosa, UniProt P54292); test: E. coli prhlA-luxCDABE luciferase reporter assay; type: cell-based
T1 construct: expressed in transfected cells; host or cells: E. coli carrying pBAD-A-rhlR, pCS26-prhlA-luxCDABE and pACYC-pqsE or empty pACYC
T1 sequence (P54292 1-241): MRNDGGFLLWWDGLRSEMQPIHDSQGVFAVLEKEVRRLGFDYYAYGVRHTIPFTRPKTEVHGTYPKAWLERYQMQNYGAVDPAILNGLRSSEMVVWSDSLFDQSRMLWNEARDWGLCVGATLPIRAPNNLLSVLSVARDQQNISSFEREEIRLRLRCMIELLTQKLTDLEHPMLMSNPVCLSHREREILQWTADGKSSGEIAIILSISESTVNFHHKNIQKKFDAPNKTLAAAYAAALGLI
Source text: (§1) Previous analysis of the RhlR LBP focused on highly conserved residues that were known from other AHL-binding proteins to be important contacts for AHL molecules, particularly the lactone head group. We performed conservation analyses on 300 LuxR-type receptors to determine variable and moderately conserved residues in the LBP (Fig. 1B) and, in conjunction with our previously determined experimental structure of WT RhlR bound to the synthetic agonist mBTL, used for docking C4- and C6HSL. Based on our docking simulations, C4- and C6HSL occupy a similar position in the LBP as mBTL, a highly efficacious activator of RhlR (Fig. 1C; Fig. S1). We targeted residues A44, G46, T58, L69, Y72, D81, I84, W96, and W108 (Fig. 1B and C). These residues were selected because of their proximity to the acyl tail of C4HSL, as well as the differences in conservation that are observed at these sites. We used an E. coli luciferase reporter assay to monitor ligand-dependent activation of WT RhlR and RhlR variants. WT RhlR and RhlR variants were expressed under the control of an arabinose-inducible promoter (Fig. S2). Transcription was monitored by light production via the expression of the luxCDABE operon controlled by the RhlR-dependent promoter of rhlA. Binding of RhlR to the rhlA promoter is highly dependent on the C4HSL-RhlR interaction, based on ChIP-seq analyses performed in P. aeruginosa as well as previously published E. coli reporter systems ([34], [39]). After expressing WT RhlR and RhlR variants in the E. coli reporter system, we performed dose response assays using C4HSL to calculate the concentration of C4HSL required to activate the reporter system to 50% maximum levels (EC50 value; Table 1). As expected, transcription activation by WT RhlR increased with increased C4HSL levels, with an EC50 value of ~2 µM. We observed a range of responses. Figure 1C depicts the targeted residues, which are colored based on the effect of amino acid substitution.
(§2) RhlR requires the accessory-binding protein, PqsE, for maximal activity. To determine if PqsE expression altered the activation of RhlR variants, we assessed AHL-dependent RhlR activation of the prhlA-luxCDABE reporter in the presence of a third plasmid that constitutively expresses PqsE in E. coli. […] RhlR variants that were still active but with increased EC50 values for C4HSL could have their activity enhanced by PqsE. […] Thus, alterations to the LBP can diminish the additive effect of PqsE-dependent transcription, indicating a potential role of allosteric conformational changes dependent on ligand occupancy. […] RhlR variants at residues I84 and W108 could not be activated by C4HSL, and thus, light levels remained low at all concentrations that were tested. Unlike the aforementioned variants, RhlR I84M/W and RhlR W108F/Y were activated by the expression of PqsE (Fig. S4).
(§3) All E. coli strains in this study were grown overnight with shaking in 5 mL Luria-Bertani (LB) media supplemented with 100 µg/mL ampicillin, 50 µg/mL kanamycin, and 15 µg/mL tetracycline at 37°C overnight. Overnight cultures were diluted 1:100 into fresh media, grown at 37°C with shaking for 2 h until reaching OD600 = 0.4. Cultures were induced with a final concentration of 0.1% arabinose, and 198 μL of the induced culture was mixed with 2 μL of C4HSL dilutions in a clear-bottom, black-opaque 96-well plate (Corning) and grown at 37°C with shaking for 4 h. The C4HSL dilution series was performed 1:1 in dimethyl sulfoxide (DMSO) with a top final concentration of 10 μM. Luminescence and optical density were recorded using a Glomax (Promega) plate reader.

RhlR (G46M) = target: T2, RhlR (G46M) (Pseudomonas aeruginosa, UniProt P54292, G46M); test: E. coli prhlA-luxCDABE luciferase reporter assay; type: cell-based
T2 construct: expressed in transfected cells; host or cells: E. coli carrying pBAD-A-rhlR mutant, pCS26-prhlA-luxCDABE and pACYC-pqsE or empty pACYC
Source text: as §1, §2, §3

RhlR (T58V) = target: T3, RhlR (T58V) (Pseudomonas aeruginosa, UniProt P54292, T58V); test: E. coli prhlA-luxCDABE luciferase reporter assay; type: cell-based
T3 construct: expressed in transfected cells; host or cells: E. coli carrying pBAD-A-rhlR mutant, pCS26-prhlA-luxCDABE and pACYC-pqsE or empty pACYC
T3 sequence (P54292 1-241 T58V): T1 sequence (P54292 1-241) with T58V
Source text: as §1, §2, §3

RhlR (A44M) = target: T4, RhlR (A44M) (Pseudomonas aeruginosa, UniProt P54292, A44M); test: E. coli prhlA-luxCDABE luciferase reporter assay; type: cell-based; conditions: even at the highest dose of C4HSL tested
T4 construct: expressed in transfected cells; host or cells: E. coli carrying pBAD-A-rhlR mutant, pCS26-prhlA-luxCDABE and pACYC-pqsE or empty pACYC
Source text: as §1, §2, §3

RhlR (L69M) = target: T5, RhlR (L69M) (Pseudomonas aeruginosa, UniProt P54292, L69M); test: E. coli prhlA-luxCDABE luciferase reporter assay; type: cell-based
T5 construct: expressed in transfected cells; host or cells: E. coli carrying pBAD-A-rhlR mutant, pCS26-prhlA-luxCDABE and pACYC-pqsE or empty pACYC
Source text: as §1, §2, §3

RhlR (L69K) = target: T6, RhlR (L69K) (Pseudomonas aeruginosa, UniProt P54292, L69K); test: E. coli prhlA-luxCDABE luciferase reporter assay; type: cell-based; conditions: pqsE co-expressed
T6 construct: expressed in transfected cells; host or cells: E. coli carrying pBAD-A-rhlR mutant, pCS26-prhlA-luxCDABE and pACYC-pqsE or empty pACYC
Source text: as §1, §2, §3

RhlR (I84M) = target: T7, RhlR (I84M) (Pseudomonas aeruginosa, UniProt P54292, I84M); test: E. coli prhlA-luxCDABE luciferase reporter assay; type: cell-based; conditions: pqsE co-expressed
T7 construct: expressed in transfected cells; host or cells: E. coli carrying pBAD-A-rhlR mutant, pCS26-prhlA-luxCDABE and pACYC-pqsE or empty pACYC
Source text: as §1, §2, §3

RhlR (G46W) = target: T8, RhlR (G46W) (Pseudomonas aeruginosa, UniProt P54292, G46W); test: E. coli prhlA-luxCDABE luciferase reporter assay; type: cell-based; conditions: even at the highest dose of C4HSL tested
T8 construct: expressed in transfected cells; host or cells: E. coli carrying pBAD-A-rhlR mutant, pCS26-prhlA-luxCDABE and pACYC-pqsE or empty pACYC
Source text: as §1, §2, §3

RhlR (I84W) = target: T9, RhlR (I84W) (Pseudomonas aeruginosa, UniProt P54292, I84W); test: E. coli prhlA-luxCDABE luciferase reporter assay; type: cell-based; conditions: pqsE co-expressed
T9 construct: expressed in transfected cells; host or cells: E. coli carrying pBAD-A-rhlR mutant, pCS26-prhlA-luxCDABE and pACYC-pqsE or empty pACYC
Source text: as §1, §2, §3

pyocyanin production = conditions: cited from earlier work

Compound: CCCC(=O)N[C@H]1CCOC1=O [C4HSL, N-butyryl-L-homoserine lactone]
- EC50 (WT RhlR; Vector (no pqsE), read-out: EC50): 2420 nM
- EC50 (WT RhlR; pqsE co-expressed, read-out: EC50): 534 nM
- C4HSL required for QS activation (WT RhlR; statement in discussion): > 1 µM
- EC50 (WT RhlR; without PqsE, read-out: EC50 value): ~2000 nM
- activation by C4HSL in the reporter system (RhlR (G46M); even at the highest dose of C4HSL tested): not activated
- EC50 (RhlR (G46M); pqsE co-expressed): 32700 nM
- EC50 (RhlR (T58V); Vector (no pqsE)): 660 nM
- EC50 (RhlR (T58V); pqsE co-expressed): 148 nM
- activation by C4HSL in the reporter system (RhlR (A44M)): not activated
- EC50 (RhlR (L69M); Vector (no pqsE)): 13800 nM
- EC50 (RhlR (L69M); pqsE co-expressed): 1720 nM
- EC50 (RhlR (L69K)): 13200 nM
- EC50 (RhlR (I84M)): 3680 nM
- activation by C4HSL in the reporter system (RhlR (G46W)): not activated
- EC50 (RhlR (I84W)): 5200 nM
- C4HSL concentration above which pyocyanin production is lost (pyocyanin production): > 5 µM
- C4HSL concentration below which pyocyanin production is lost (pyocyanin production): < 500 nM
